# Patent EP4190319A1, “PHARMACEUTICAL COMPOSITION COMPRISING MEMANTINE AND CITICOLINE” (Novamedica Limited Liability Company, priority 2020, dated 2022)
# System: rats
# Assay: Morris Water Maze test of long-term memory in the model of global transient cerebral ischemia with ligation of common carotid arteries
# Assay type: in vivo
# Protocol: The comparative study of specific pharmacological activity of the pharmaceutical composition proposed in this invention was conducted by comparison with the citicoline mono-preparation on the model of ischemic stroke in rats. For that purpose, a model of global transient cerebral ischemia with ligation of common carotid arteries was selected on the basis of the Handbook on Conducting Pre-Clinical Studies of Therapeutical Agents, ed. by A.N. Mironov. Long-term memory was evaluated with the use of the Morris Water Maze test (Morris R., "J Neurosci Methods", 1984, Vol. 11, No 1. - P. 47-60 [10]). Table. Effect of the preparations under study on long-term memory in rats in the Morris Water Maze test.
Compound,"Latent period of finding platform (mg/kg (citicoline + memantine) 100+0, ischemic stroke model in rats)","Latent period of finding platform (mg/kg (citicoline + memantine) 500+0, ischemic stroke model in rats)","Latent period of finding platform (mg/kg (citicoline + memantine) 1,000+0, ischemic stroke model in rats)","Latent period of finding platform (mg/kg (citicoline + memantine) 0+2, ischemic stroke model in rats)","Latent period of finding platform (mg/kg (citicoline + memantine) 0+10, ischemic stroke model in rats)","Latent period of finding platform (mg/kg (citicoline + memantine) 0+20, ischemic stroke model in rats)"
"C[N+](C)(C)CCOP(=O)(O)OP(=O)([O-])OC[C@H]1O[C@@H](n2ccc(N)nc2=O)[C@H](O)[C@@H]1O [Citicoline, 5'-O-[hydroxy({hydroxy[2-(trimethylammonio)ethoxy]phosphoryl}oxy)phosphoryl]cytidine]",20.4 ± 7.6 s,13.6 ± 3.5 s,10.4 ± 3.5 s,–,–,–
"CC12CC3CC(C)(C1)CC(N)(C3)C2 [Memantine, 3,5-dimethyladamantan-1-amine]",–,–,–,27.1 ± 7.8 s,14.6 ± 5.2 s,9.2 ± 1.2 s
